In PMC9321952 (Molecular Ecology, 2022):

Tests used:
Assay in all cases: Fluo-4 calcium fluorescence assay, HEK293 cells
Settings in all cases: agonist; co-expressed with ItypOrco; room temperature
DponOR8^HsCO = format: cell-based, Dendroctonus ponderosae
ItypOR6 = format: cell-based, Ips typographus
HabiOR3 = format: cell-based, Hylobius abietis
HabiOR4^HsCO = format: cell-based, Hylobius abietis

SMILES | EC50 (DponOR8^HsCO) [µM] | EC50 (ItypOR6) [µM] | EC50 (HabiOR3) [µM] | EC50 (HabiOR4^HsCO) [µM]
OCCc1ccccc1 [2-phenylethanol] | 5.12 | 3.45 | 8.54 | –
CC/C=C\CCO [Z3-hexenol] | – | – | – | 7.99
CCC/C=C\CO [Z2-hexenol] | – | – | – | 7.34
CCCCCCO [1-hexanol] | – | – | – | 2.85
CCC/C=C/CO [E2-hexenol] | – | – | – | 3.88
